Assays:
[1] = test system: CT2A (murine malignant glioma); test: UV light activated psoralen, Cell-Titer-Glo Luminescence Cell Viability Assay (FIG. 3A); type: cell-based; conditions: psoralen 40 μM; UV light 0, 0.25, 0.5, 1.0 J/cm^2
Experimental: (§1) Metabolic cell viability was also assessed visually using Methylene blue staining and ATP-induced Luminescence imaging (Cell-Titer-Glo® Luminescence Cell Viability Assay). The luminescence imaging permitted investigation of the cytotoxicity of psoralen activated directly with a UV lamp, and in the absence of phosphors and x-ray radiation. […] N=4 for each cell line at each UV light condition (0, 0.25, 0.5, 1.0 J/cm^2). The psoralen concentration was 40 μM.

[2] = test system: 4T1-HER2 cells; conditions: multi-variable regression on 36 independent irradiation experiments
Experimental: Guava Annexin V flow cell cytometry was used to quantify cytotoxicity in 3 murine tumor cell lines (breast-4T1, glioma-CT2A, and sarcoma KP15B8). […] Cells were incubated in appropriate growing media and buffers before being trypsinized and plated evenly onto twelve (12) well plates for 24 hours. […] The plates were then irradiated with x-rays by placing the plate at a known distance from the x-ray source (e.g., 50 cm). After irradiation the cells were incubated on the plate for 48 hours prior to performing flow cytometry. For compatibility with 96-well Guava Nexin® assay, the remaining cells were again trypsinized (after the 48 hour incubation) and plated onto a 96-well plate. […]
Cells plated in 12-well plates, where individual wells in each plate may receive different experimental conditions (e.g. psoralen concentration), but the same x-ray dose (i.e. all wells in a given plate receive the same x-ray dose). The first metric is metabolically viable cell count (or cell viability) determined from the number of whole cells per well as determined using forward scattering (FSC). […] (All wells on a given plate receive the same dose.) The second metric is Annexin V (+) signal, which is the fraction of the metabolically viable cells which expressed a positive Annexin V signal as determined by flow cell cytometry, and include any cells advancing toward early or late apoptotic cell death. […]

[3] = test system: syngeneic 4T1-HER2 tumors; test: In-vivo X-PACT trial on syngeneic tumors (FIG. 6); design: species or system BALB/c mice; conditions: psoralen (AMT) alone with x-ray, phosphors alone with x-ray; relative to in-vitro expectation
Experimental: There were 6-8 mice per arm, and the study was repeated a second time, yielding effective sample sizes of 12-16. […] In the separate psoralen and phosphor control arms (blue and red respectively), 5 μM psoralen (AMT) and 100 μg of phosphor where applied. A consistent x-ray irradiation technique was used for all arms (except saline control) which was 2 Gy delivered at 75 kVp by 30 mA in 3 minutes.

[4] = test system: KP158B (sarcoma); test: UV light activated psoralen, Cell-Titer-Glo Luminescence Cell Viability Assay (FIG. 3A); type: cell-based, murine; conditions: psoralen 40 μM; UV light 0, 0.25, 0.5, 1.0 J/cm^2
Experimental: as §1

[5] = test system: 4T1; test: as above; type: cell-based, murine; conditions: psoralen 40 μM; UV light 0, 0.25, 0.5, 1.0 J/cm^2
Experimental: as §1

O=c1ccc2cc3ccoc3cc2o1 [psoralen]
effect of UV light activated psoralen on viable cells [1]: reduce viable cells
effect on cytotoxicity (Annexin V signal) of component alone [2]: neither psoralen nor phosphor alone had a strong effect on cytotoxicity
component effect in control arms [3]: slightly higher component effect
effect of UV light activated psoralen on viable cells [4]: reduce viable cells
effect of UV light activated psoralen on viable cells [5]: reduce viable cells
